Experimental data reported in ChEMBL document CHEMBL1201862, “PubChem BioAssay data set” (2004).
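Results reflect a 48-hour exposure of cells in 96-well plates to compound at five concentrations. Here, GI50 denotes the concentration required for 50% inhibition of growth.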 The source made the active and inactive calls. Rule as the data show it: active = GI50 up to about 1.1 µM and inactive = higher.

Legend:
Assay in all cases: NCI anticancer screen, dose series, 48 h
A498 = system: A498
ACHN = system: ACHN
COLO 205 = system: COLO 205
DU-145 = system: DU-145
HCT-116 = system: HCT-116
HT-29 = system: HT-29
LOX IMVI = system: LOX IMVI
M14 = system: M14
MDA-N = system: MDA-N
NCI-H226 = system: NCI-H226
NCI-H23 = system: NCI-H23
NCI-H460 = system: NCI-H460
NCI/ADR-RES = system: NCI/ADR-RES
RXF 393 = system: RXF 393
SK-MEL-5 = system: SK-MEL-5
SK-OV-3 = system: SK-OV-3
SNB-19 = system: SNB-19
TK-10 = system: TK-10
UACC-257 = system: UACC-257

| Structure (SMILES) | GI50 (A498) | GI50 (ACHN) | GI50 (COLO 205) | GI50 (DU-145) | GI50 (HCT-116) | GI50 (HT-29) | GI50 (LOX IMVI) | GI50 (M14) | GI50 (MDA-N) | GI50 (NCI-H226) | GI50 (NCI-H23) | GI50 (NCI-H460) | GI50 (NCI/ADR-RES) | GI50 (RXF 393) | GI50 (SK-MEL-5) | GI50 (SK-OV-3) | GI50 (SNB-19) | GI50 (TK-10) | GI50 (UACC-257) |
| --- | --- | --- | --- | --- | --- | --- | --- | --- | --- | --- | --- | --- | --- | --- | --- | --- | --- | --- | --- |
| Cn1c(=O)c2[nH]c(CCC(=O)O)nc2n(C)c1=O | > 100 µM (inactive) | > 100 µM (inactive) | > 100 µM (inactive) | > 100 µM (inactive) | > 100 µM (inactive) | > 100 µM (inactive) | > 100 µM (inactive) | > 100 µM (inactive) | > 100 µM (inactive) | > 100 µM (inactive) | > 100 µM (inactive) | > 100 µM (inactive) | > 100 µM (inactive) | > 100 µM (inactive) | > 100 µM (inactive) | > 100 µM (inactive) | > 100 µM (inactive) | > 100 µM (inactive) | > 100 µM (inactive) |
| c1cc(CNCCN2CCNCC2)ccn1 | > 100 µM (inactive) | > 100 µM (inactive) | > 100 µM (inactive) | > 100 µM (inactive) | > 100 µM (inactive) | > 100 µM (inactive) | > 100 µM (inactive) | > 100 µM (inactive) | > 100 µM (inactive) | > 100 µM (inactive) | > 100 µM (inactive) | > 100 µM (inactive) | > 100 µM (inactive) | > 100 µM (inactive) | > 100 µM (inactive) | > 100 µM (inactive) | > 100 µM (inactive) | 20.3 µM (inactive) | > 100 µM (inactive) |
| CC1=CC(c2ccccc2)n2c(nc3cc4ccccc4cc32)N1 (stereo not given) | > 100 µM (inactive) | > 100 µM (inactive) | > 100 µM (inactive) | > 100 µM (inactive) | > 100 µM (inactive) | > 100 µM (inactive) | > 100 µM (inactive) | > 100 µM (inactive) | > 100 µM (inactive) | > 100 µM (inactive) | > 100 µM (inactive) | > 100 µM (inactive) | > 100 µM (inactive) | > 100 µM (inactive) | > 100 µM (inactive) | > 100 µM (inactive) | > 100 µM (inactive) | > 100 µM (inactive) | > 100 µM (inactive) |
| CSc1ncc2c(n1)C(C#N)C1Sc3ccccc3N1C2=O (stereo not given) | > 100 µM (inactive) | 59.4 µM (inactive) | > 100 µM (inactive) | > 100 µM (inactive) | > 100 µM (inactive) | > 100 µM (inactive) | > 100 µM (inactive) | > 100 µM (inactive) | > 100 µM (inactive) | > 100 µM (inactive) | 78 µM (inactive) | > 100 µM (inactive) | > 100 µM (inactive) | 65 µM (inactive) | > 100 µM (inactive) | > 100 µM (inactive) | 53.6 µM (inactive) | 90.4 µM (inactive) | > 100 µM (inactive) |
| BrC1=C(Br)C2(SCCS2)[C@H]2C[C@@H]1c1ccccc12 | > 100 µM (inactive) | > 44 µM (inactive) | 29.4 µM (inactive) | 47.3 µM (inactive) | 13.1 µM (inactive) | 10.2 µM (inactive) | 43.7 µM (inactive) | > 79.8 µM (inactive) | 4.07 µM (inactive) | 64.1 µM (inactive) | 33.9 µM (inactive) | 33.5 µM (inactive) | 61.5 µM (inactive) | > 31.2 µM (inactive) | 9.38 µM (inactive) | > 46 µM (inactive) | > 100 µM (inactive) | > 100 µM (inactive) | 52.6 µM (inactive) |
| CN1C(=O)N/C(=C\c2ccc(S(=O)(=O)N/N=C/c3ccccc3)cc2)C1=O | > 100 µM (inactive) | 24.7 µM (inactive) | 71.9 µM (inactive) | 40 µM (inactive) | 23.8 µM (inactive) | 30.9 µM (inactive) | 18.1 µM (inactive) | 37 µM (inactive) | 32 µM (inactive) | 74.6 µM (inactive) | 23.3 µM (inactive) | 10.5 µM (inactive) | 27.6 µM (inactive) | 21.2 µM (inactive) | 13.6 µM (inactive) | > 100 µM (inactive) | 62.2 µM (inactive) | 31 µM (inactive) | 18.4 µM (inactive) |
| Cc1cc(S(=O)(=O)Nc2nc(N)nc(N3N=CCC3C)n2)c(S)cc1Cl (stereo not given) | > 10 µM (inactive) | > 10 µM (inactive) | > 10 µM (inactive) | > 10 µM (inactive) | > 10 µM (inactive) | > 10 µM (inactive) | > 10 µM (inactive) | > 10 µM (inactive) | > 10 µM (inactive) | > 10 µM (inactive) | > 10 µM (inactive) | > 10 µM (inactive) | > 10 µM (inactive) | > 10 µM (inactive) | > 10 µM (inactive) | > 10 µM (inactive) | > 10 µM (inactive) | > 10 µM (inactive) | > 10 µM (inactive) |
| O=C(O)c1cc(Cl)cc2c1NC1(N2)C(=O)Nc2ccccc21 (stereo not given) | > 100 µM (inactive) | > 100 µM (inactive) | > 100 µM (inactive) | > 100 µM (inactive) | 56.4 µM (inactive) | 78.5 µM (inactive) | 49 µM (inactive) | > 100 µM (inactive) | > 100 µM (inactive) | > 100 µM (inactive) | > 100 µM (inactive) | > 100 µM (inactive) | > 100 µM (inactive) | 52.6 µM (inactive) | > 100 µM (inactive) | > 100 µM (inactive) | > 100 µM (inactive) | > 100 µM (inactive) | > 100 µM (inactive) |
| CCCCCCCCCCCCCCCCCCNC(=S)N/C=C1\C(=O)Nc2ccccc2C1=O | 21.4 µM (inactive) | 16.4 µM (inactive) | 17.4 µM (inactive) | 16 µM (inactive) | 15.7 µM (inactive) | 16.9 µM (inactive) | 16.3 µM (inactive) | 18.3 µM (inactive) | 17.4 µM (inactive) | 22.9 µM (inactive) | 18.9 µM (inactive) | 16.1 µM (inactive) | 18.4 µM (inactive) | 22.2 µM (inactive) | 24.2 µM (inactive) | 19.2 µM (inactive) | 17.3 µM (inactive) | 23.3 µM (inactive) | 17.1 µM (inactive) |
| C/C(=N/NC(=S)N(Cc1ccccn1)Cc1ccccn1)c1cnccn1 | 9.84 µM (inactive) | 0.306 µM (active) | 0.0861 µM (active) | 0.713 µM (active) | 0.33 µM (active) | 0.0303 µM (active) | 0.133 µM (active) | 0.0622 µM (active) | 2.67 µM (inactive) | < 0.0178 µM (active) | 0.731 µM (active) | 0.601 µM (active) | 0.0242 µM (active) | 2.52 µM (inactive) | 0.432 µM (active) | 0.476 µM (active) | 0.962 µM (active) | 0.071 µM (active) | 0.47 µM (active) |
| O=C(NNc1cn[nH]c(=O)n1)c1cccc2nc3ccccc3nc12 | > 100 µM (inactive) | 23.3 µM (inactive) | > 100 µM (inactive) | 85.3 µM (inactive) | > 100 µM (inactive) | > 100 µM (inactive) | 38.8 µM (inactive) | > 100 µM (inactive) | > 100 µM (inactive) | 82.2 µM (inactive) | 45.6 µM (inactive) | > 100 µM (inactive) | > 100 µM (inactive) | 21.7 µM (inactive) | > 100 µM (inactive) | 33.4 µM (inactive) | 74 µM (inactive) | 24.3 µM (inactive) | > 100 µM (inactive) |
| O=C(O)C(=Cc1ccc(-c2ccc([N+](=O)[O-])cc2)o1)C(=O)O | > 100 µM (inactive) | > 100 µM (inactive) | > 100 µM (inactive) | > 100 µM (inactive) | > 100 µM (inactive) | > 100 µM (inactive) | > 100 µM (inactive) | > 100 µM (inactive) | > 100 µM (inactive) | > 100 µM (inactive) | > 100 µM (inactive) | > 100 µM (inactive) | > 100 µM (inactive) | > 100 µM (inactive) | > 100 µM (inactive) | > 100 µM (inactive) | > 100 µM (inactive) | > 100 µM (inactive) | > 100 µM (inactive) |
| COc1cc(C(=O)N(C)N(C)C)cc(OC)c1OC | > 10 µM (inactive) | > 10 µM (inactive) | > 10 µM (inactive) | > 10 µM (inactive) | > 10 µM (inactive) | > 10 µM (inactive) | > 10 µM (inactive) | > 10 µM (inactive) | > 10 µM (inactive) | > 10 µM (inactive) | > 10 µM (inactive) | > 10 µM (inactive) | > 10 µM (inactive) | > 10 µM (inactive) | > 10 µM (inactive) | > 10 µM (inactive) | > 10 µM (inactive) | > 10 µM (inactive) | > 10 µM (inactive) |
| O=C1NC2(CCN(CCc3ccccc3)CC2)Oc2ccccc21 | 68.1 µM (inactive) | 84.7 µM (inactive) | 31.5 µM (inactive) | > 100 µM (inactive) | 55.2 µM (inactive) | 38 µM (inactive) | 53.7 µM (inactive) | 18.5 µM (inactive) | 41.6 µM (inactive) | 61.1 µM (inactive) | 64 µM (inactive) | > 100 µM (inactive) | 38.2 µM (inactive) | 22.4 µM (inactive) | 14.5 µM (inactive) | > 100 µM (inactive) | 85.3 µM (inactive) | > 100 µM (inactive) | 37.8 µM (inactive) |
| N#CC(C#N)=C(N)/C(C#N)=C/c1ccc2[nH]ccc2c1 | > 100 µM (inactive) | > 100 µM (inactive) | > 100 µM (inactive) | > 100 µM (inactive) | > 100 µM (inactive) | > 100 µM (inactive) | > 100 µM (inactive) | > 100 µM (inactive) | > 100 µM (inactive) | > 100 µM (inactive) | > 100 µM (inactive) | > 100 µM (inactive) | > 100 µM (inactive) | > 91.2 µM (inactive) | > 100 µM (inactive) | > 100 µM (inactive) | > 100 µM (inactive) | > 100 µM (inactive) | > 100 µM (inactive) |
